Reference: US20050026836A1, “Composition for the treatment of damaged tissue” (priority 1999, published 2005)

What was measured:
[1] = target: T1, catalytic domain human MMP-1 (Homo sapiens, UniProt P03956); assay: MMP-1 fluorogenic inhibition assay; format: biochemical; conditions: * limited by compound solubility; read-out: Calculated Ki(nM) MMP-1
T1 construct: made in house
T1 sequence (P03956 100-269 limits assumed): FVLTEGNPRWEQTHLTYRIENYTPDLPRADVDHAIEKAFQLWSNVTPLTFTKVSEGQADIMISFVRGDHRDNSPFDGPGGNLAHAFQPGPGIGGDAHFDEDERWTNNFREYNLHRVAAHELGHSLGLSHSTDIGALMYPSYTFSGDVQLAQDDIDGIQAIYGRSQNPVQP
Protocol: (§1) All enzymes were pre-activated at 37° C. with aminophenylmercuric acetate (APMA) or trypsin before being made up to the final concentrations used in the assay.
(§2) For MMP-1, the assay buffer used was 50 mM Tris, 200 mM NaCl, 5 mM CaCl2, 20 μM ZnCl2, 0.05% (w/v) Brij 35, pH 7.5. […] For MMP-13, the assay buffer used was 50 mM Tris, pH 7.5, 200 mM NaCl, 5 mM CaCl2, […] and 0.02% (w/v) Brij 35.
The incubation was performed at 37° C. for 60 minutes.
(§3) For MMP-2, the final assay concentrations of inhibitors used were 1000, 800, 600, 400, 200 and 100 nM. For MMP-3, the final assay concentrations of inhibitors used were 5, 4, 3, 2, 1 and 0.5 nM. For MMP-9 and MMP-14, the final assay concentrations of inhibitors used were 5, 4, 3, 2, 1 and 0.5 μM.
(§4) All assays were carried out in a black 96-well plate with a final volume of 100 μl in each well. Inhibitors were dissolved in dimethylsulphoxide (DMSO) to 1 mM. Solutions were then serially diluted in buffer to give the final concentrations shown.
(§5) These were estimated using the following equation: IC50=(Ki*[…], where S is the substrate concentration and Km the Michaelis-Menton coefficient. Serine Protease Assays

[2] = target: catalytic domain of human MMP-2 (Homo sapiens, UniProt P08253); assay: MMP-2 fluorogenic inhibition assay; format: biochemical; conditions: read-out: Calculated Ki(nM) MMP-2
Protocol: as §1, §2
(§6) MMP-2, MMP-3 and MMP-9 inhibition was assayed by incubating activated catalytic domain of human MMP-2, MMP-3 and MMP-9 at 1 nM in assay buffer with 5 μM substrate Mca-Arg-Pro-Lys-Pro-Tyr-Ala-Nva-Trp-Met-Lys(Dnp)-NH2, and six different concentrations of inhibitor. The incubation was performed at 37° C. for 60 minutes.
as §3
All assays were carried out in a black 96-well plate with a final volume of 100 μl in each well. Inhibitors were dissolved in dimethylsulphoxide (DMSO) to 1 mM. Solutions were then serially diluted in buffer to give the final concentrations shown. […]

[3] = target: T2, catalytic domain of human MMP-3 (Homo sapiens, UniProt P08254); assay: MMP-3 fluorogenic inhibition assay; format: biochemical
T2 construct: made in house
Protocol: as §1, §2, §6, §3, §4, §5

[4] = target: T3, catalytic domain of human MMP-9 (Homo sapiens, UniProt P14780); assay: MMP-9 fluorogenic inhibition assay; format: biochemical; conditions: read-out: Calculated Ki(nM) MMP-9
T3 sequence (P14780 with tags, fused parts or gaps DEL216-390 limits assumed): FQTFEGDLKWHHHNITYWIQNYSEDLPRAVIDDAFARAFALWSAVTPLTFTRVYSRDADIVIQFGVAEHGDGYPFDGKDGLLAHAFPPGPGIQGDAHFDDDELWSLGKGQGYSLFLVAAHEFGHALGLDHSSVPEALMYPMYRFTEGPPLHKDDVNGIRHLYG
Protocol: (§7) All enzymes were pre-activated at 37° C. with aminophenylmercuric acetate (APMA) or trypsin before being made up to the final concentrations used in the assay. MMP-1 (30 nM) was activated with 0.93 mM APMA for 20 minutes, MMP-2 (30 nM) was activated with 1.32 mM APMA for 1 hour, MMP-3 (1010 nM) was activated with 1.81 mM APMA for 3 hours or heat activated at 55° C. for three hours, MMP-9 (100 nM) was activated with 2 mM APMA for 2 hours, human MMP-13 (100 nM) was activated with 2 mM APMA for 2 hours, and MMP-14 (900 nM) was activated with 0.9 ng/ml trypsin for 25 minutes, followed by the addition of 4.5 ng/ml trypsin inhibitor.
as §2, with “35. For MMP-14, the assay buffer used was 50 mM Tris, 100 mM NaCl, 10 mM CaCl2, 0.25% (w/v) Brij 35, pH 7.5.” for “35.”
as §6
as §3, with “The final assay concentrations of inhibitors used in the MMP-1 assays to determine Ki were 50, 40, 30, 20, 10 and 5 μM. For MMP-2,” for “For MMP-2,”
(§8) All assays were carried out in a black 96-well plate with a final volume of 100 μl in each well. […] For MMP-2, MMP-3, MMP-9 and MMP-14, fluorescence was read every 2 minutes at […] and 393 nm γem for 1 hour using a Fluorostar fluorimeter (BMG) with BIOLISE software. For MMP-1 assays, the filters used were 355 nm γex and 440 nm γem; fluorescence was read every 2 minutes for 1 hour. […]

MMP-13 [5] = target: T4, MMP-13 (Homo sapiens, UniProt P45452); assay: MMP-13 fluorogenic inhibition assay; format: biochemical; conditions: estimated from IC50; read-out: Calculated Ki(nM) MMP-13
T4 construct: made in house
Protocol: as §1, §2
Assays were carried out in 96-well microfluor plates. All incubations were performed at 37° C. and fluorescence readings determined at 360 nm γex and 450 nm γem.
For the assay, the fluorescence values at time zero were subtracted from those determined at 15 or 20 minutes. The % response was then calculated by comparison to positive controls (enzyme, buffer and substrate in the absence of inhibitor). IC50 values were then determined using FitCurve (Excel Tessella Stats add-in).
as §5

[6] = target: T5, catalytic domain human MMP-14 (Homo sapiens, UniProt P50281); assay: MMP-14 fluorogenic inhibition assay; format: biochemical; conditions: read-out: Calculated Ki(nM) MMP-14
T5 construct: made in house
Protocol: as §7
as §2, with “35. For MMP-14, the assay buffer used was 50 mM Tris, 100 mM NaCl, 10 mM CaCl2, 0.25% (w/v) Brij 35, pH 7.5.” for “35.”
MMP-14 inhibition was assayed by incubating activated catalytic domain human MMP-14 at 1 nM in assay buffer with 10 μM Mca-Pro-Leu-Gly-Leu-Dpa-Ala-Arg-NH2 and six concentrations of inhibitor. The incubation was performed at 37° C. for 60 minutes.
as §3, with “The final assay concentrations of inhibitors used in the MMP-1 assays to determine Ki were 50, 40, 30, 20, 10 and 5 μM. For MMP-2,” for “For MMP-2,”
as §8, with “well. Inhibitors were dissolved in dimethylsulphoxide (DMSO) to 1 mM.” for “well.”

MMP-3 [7] = target: T6, MMP-3 (Homo sapiens, UniProt P08254); assay: Reduction of MMP-3-catalysed degradation of KGF-2; format: biochemical; conditions: MMP-3 / KGF-2, read-out: Percentage inhibition of proteolysis
T6 construct: made in house

Plasmin = target: T7, Plasmin (Homo sapiens, UniProt P00747); assay: Proteolytic digestion of growth factors by purified plasmin; format: biochemical; set-up: key: significant (represented as ‘+’); a score from significant (represented as ‘+’) to major (represented as ‘+++’); major (represented as ‘+++’); Reduction of parent growth factor not accompanied by the appearance of degradation products is represented by (+); conditions: 37° C., Western blot
T7 construct: Human plasmin, 2 mg/vial (Quadratech, 810665) was reconstituted to 1 mg/ml in buffer; purchased Quadratech 810665
Protocol: (§9) The extent of proteolysis of the growth factors was assayed by incubating TGF-β2, VEGF, PDGF-BB and KGF-2 with the proteases uPA, plasmin, MMP-3 and MMP-13 in assay buffer (either uPA/plasmin buffer, 50 mM tris-HCl, pH 7.4 or MMP assay buffer, 100 mM Tris, 10 mM NaCl, 10 mM CaCl2, 0.05% (w/v) Brij 35, pH 7.5). […] The growth factors were added to the incubation mixture at a final concentration of 7.9 mg/ml, unless otherwise stated.
(§10) The effects of uPA were determined by incubation at a typical final concentration of 25 μg/ml (1500 U/ml) with each growth factor. The effects of plasmin were determined at a typical final concentration of 0.1 mg/ml by incubation with the individual growth factors in assay buffer. MMP-3 and -13 were incubated at a typical final concentration of 10 nM with the growth factors in assay buffer. […] All incubations were performed in siliconised tubes (Sigma Aldrich, UK).
(§11) All assays were carried out at 37° C. and enzymes were pre-incubated for 15 minutes with or without inhibitor as appropriate, prior to addition of growth factors. After the addition of growth factor, the incubation mixtures were divided into aliquots in siliconised tubes for each time point used. Incubations were carried out over a time course typically of 24 hours, unless otherwise stated. […]

MMP-3 [8] = target: T6, MMP-3; assay: Proteolytic digestion of growth factors by purified MMP-3; format: biochemical; set-up: key: significant (represented as ‘+’); a score from significant (represented as ‘+’) to major (represented as ‘+++’); major (represented as ‘+++’); Reduction of parent growth factor not accompanied by the appearance of degradation products is represented by (+); conditions: purified MMP-3, 37° C., Western blot
Protocol: as §9, §10, §11

MMP-13 [9] = target: T4, MMP-13; assay: Proteolytic digestion of growth factors by purified MMP-13; format: biochemical; set-up: key: significant (represented as ‘+’); a score from significant (represented as ‘+’) to major (represented as ‘+++’); major (represented as ‘+++’); Reduction of parent growth factor not accompanied by the appearance of degradation products is represented by (+); conditions: purified MMP-13, 37° C., Western blot
Protocol: as §9, §10, §11

uPA = uPA (Homo sapiens, UniProt P00749); assay: Proteolytic digestion of growth factors by purified uPA; format: biochemical; set-up: High molecular weight human urokinase from urine, 3000 IU/vial (Calbiochem, 672081); purchased Calbiochem 672081; host or cells: human urine; key: significant (represented as ‘+’); a score from significant (represented as ‘+’) to major (represented as ‘+++’); major (represented as ‘+++’); Reduction of parent growth factor not accompanied by the appearance of degradation products is represented by (+); conditions: 37° C., Western blot
Protocol: as §9, §10, §11

[10] = in vivo; cited from earlier work

T6 sequence (P08254 100-272 limits assumed): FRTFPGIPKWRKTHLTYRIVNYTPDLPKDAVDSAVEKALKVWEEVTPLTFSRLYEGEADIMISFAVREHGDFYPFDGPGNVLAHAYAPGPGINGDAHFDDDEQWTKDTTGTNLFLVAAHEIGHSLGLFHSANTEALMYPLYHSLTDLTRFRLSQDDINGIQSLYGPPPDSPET
T2 sequence (P08254 100-272 limits assumed): as above
T7 sequence (P00747 581-810 limits assumed): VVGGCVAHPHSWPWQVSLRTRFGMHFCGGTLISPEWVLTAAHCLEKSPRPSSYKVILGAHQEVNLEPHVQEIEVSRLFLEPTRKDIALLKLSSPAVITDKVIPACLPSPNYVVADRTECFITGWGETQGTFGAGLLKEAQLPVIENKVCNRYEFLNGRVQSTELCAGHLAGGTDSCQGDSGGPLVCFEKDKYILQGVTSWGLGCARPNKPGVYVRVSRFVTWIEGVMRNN
T7 sequence (P00747 97-580 partner limits assumed): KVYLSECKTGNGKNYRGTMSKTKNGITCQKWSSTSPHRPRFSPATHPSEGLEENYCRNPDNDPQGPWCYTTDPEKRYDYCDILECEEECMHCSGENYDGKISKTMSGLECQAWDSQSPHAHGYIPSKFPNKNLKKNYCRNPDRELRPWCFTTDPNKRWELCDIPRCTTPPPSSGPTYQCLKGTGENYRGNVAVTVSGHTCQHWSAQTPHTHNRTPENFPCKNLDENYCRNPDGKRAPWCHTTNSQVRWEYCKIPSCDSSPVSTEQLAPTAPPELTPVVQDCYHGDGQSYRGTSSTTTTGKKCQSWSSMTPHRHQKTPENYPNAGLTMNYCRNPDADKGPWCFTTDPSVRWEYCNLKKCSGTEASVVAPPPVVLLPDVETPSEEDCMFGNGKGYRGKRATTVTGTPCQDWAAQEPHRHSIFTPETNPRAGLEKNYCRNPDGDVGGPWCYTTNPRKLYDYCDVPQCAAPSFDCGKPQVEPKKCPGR
catalytic domain of human MMP-2, sequence (P08253 with tags, fused parts or gaps DEL222-396 limits assumed): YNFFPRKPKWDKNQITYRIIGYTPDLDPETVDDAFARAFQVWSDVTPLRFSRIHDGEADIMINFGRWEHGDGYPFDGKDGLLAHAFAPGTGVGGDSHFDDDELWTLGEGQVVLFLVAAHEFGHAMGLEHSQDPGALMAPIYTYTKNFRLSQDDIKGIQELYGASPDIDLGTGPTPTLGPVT

Question: For `Cc1cc(C2CCN(S(=O)(=O)C(C)(C)C(=O)NO)CC2)ccc1-c1cccc(OCCO)c1` [compound 9470], which Ki [1] is on record?
Answer: 1780 nM

Question: And the Ki [2]?
Answer: 269 nM

Question: What about the “Selectivity among MMPs (in words)” value ([3]; from Ki values of Table 3 (MMP-1, -2, -3, -9, -13, -14)) of the same molecule?
Answer: selective dual inhibitor of MMP-3 and MMP-13

Question: And the Ki ([3]; read-out: Calculated Ki(nM) MMP-3)?
Answer: 1 nM

Question: And the Ki [4]?
Answer: 406 nM

Question: What about the Ki (MMP-13 [5]) of the same molecule?
Answer: 0.95 nM

Question: What about the Ki [6] of the same molecule?
Answer: 1710 nM

Question: And the inhibition at 0.01 µM (MMP-3 [7]; inhibitor 0.01 μM)?
Answer: 24.5%

Question: And the inhibition at 0.1 µM (MMP-3 [7]; inhibitor 0.1 μM)?
Answer: 64.5%

Question: And the inhibition at 1 µM (MMP-3 [7]; inhibitor 1 μM)?
Answer: 72.2%

Question: And the inhibition at 10 µM (MMP-3 [7]; inhibitor 10 μM)?
Answer: 91.1%

Question: With “PDGF-BB: "human recombinant PDGF-BB" obtained from Sigma; growth factor” as the molecule, how does the “Extent of hydrolysis of growth factor by Plasmin” value (Plasmin) read?
Answer: +++

Question: And the “Extent of hydrolysis of growth factor by MMP-3” value (MMP-3 [8])?
Answer: +

Question: And the “Extent of hydrolysis of growth factor by MMP-13” value (MMP-13 [9])?
Answer: (+)

Question: And the “Extent of hydrolysis of growth factor by uPA” value (uPA)?
Answer: ++

Question: Which “Extent of hydrolysis of growth factor by Plasmin” value (Plasmin) does the source give for “TGF-β2: "Human recombinant TGF-β2 and KGF-2 were obtained from R&D Systems"; growth factor” here?
Answer: ++

Question: And the “Extent of hydrolysis of growth factor by MMP-3” value (MMP-3 [8])?
Answer: (+)

Question: And the “Extent of hydrolysis of growth factor by MMP-13” value (MMP-13 [9])?
Answer: +

Question: And the “Extent of hydrolysis of growth factor by uPA” value (uPA)?
Answer: +

Question: For transforming growth factor β3 [TGFβ3], which “half life after injection into venous ulcers” value [10] is on record?
Answer: approximately 30 minutes
